By Ki is commonly meant the dissociation constant of the complex between target and ligand, obtained from inhibition or displacement.

Assay [1] concerns the target sGC α1/β1 heterodimer (Homo sapiens (Human), UniProt Q02108+Q02153). In words: Cell-based sGC functional assay (cyclic GMP assay for sGC activator: CASA assay). The arrangement: % Activation: concentration or dose not given beside the values. As to conditions: CHO-K1/sGC cells; for % Activation: activity expressed as percentage of compound A (standard); for EC50: inflection point, 4P fit, read-out: IP; for Emax: CHO-K1, activity expressed as percentage of compound A (standard), read-out: % Activation. An outline of the steps:
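CHO-K1 cells stably expressing sGC α1/β1 were pre-incubated with or without 1 μM DETA-NO (30 min, 25 °C), then exposed to compounds for 1 hr at 37 °C with 0.5 mM IBMX. Intracellular cGMP was read by HTRF and expressed as a percentage of a reference heme-dependent activator's maximum.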

Assay [2] deals with human recombinant sGC enzyme (Homo sapiens (Human), UniProt Q02108+Q02153). In words: Size Exclusion Chromatography (SEC) competition binding assay using [3H] Ex-77B as the radioligand. The note with it: [3H] Ex-77B radioligand, 24 hours at 37° C. The gist of the method: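 Recombinant human sGC binding measured by competition against tritiated Ex-77B radioligand, with non-specific binding defined by 1 μM unlabeled Ex-77B.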
(In general: In gel filtration, larger molecules generally elute earlier.)

In assay [3] the test system is Spontaneously hypertensive rats (SHR). In words: Acute efficacy in spontaneously hypertensive rats (SHR). It is filed as in vivo, rat. The source says: Acute Efficacy in Spontaneously Hypertensive Rats (SHR)
Spontaneously hypertensive rats (SHR, male, Charles River) were implanted with DSI TA11PA-C40 telemetry device (Data Sciences, Inc., St. Paul, Minn.) under isoflurane or ketamine/metomidine anesthesia. The telemetry unit catheter was inserted into the descending aorta via the femoral artery and the telemetry device was implanted subcutaneously in the left flank area. Animals were allowed to recover from surgery for 14 days before the start of any studies. Blood pressure, heart rate, and activity signals from conscious, freely moving rats were recorded continuously for 30 seconds every 10 minutes. On the day prior to administration of compound, a single oral dose of vehicle (10% transcutol/20% Cremophor/70% water) was administered to all animals to establish baseline control data. The blood pressure lowering efficacy of compound (PO) or vehicle was evaluated following a single oral gavage. Data were collected as hourly averages, and changes in blood pressure were calculated by subtracting control baseline data on an hourly basis. Animals were maintained on normal diet with a 12 hour light-dark cycle.
Maximum peak decreases of systolic blood pressure (SBP) in SHR at a particular P.O. dose (mpk milligrams per kilogram) for the following Example compounds are provided.

Turning to `CC(Cc1ccc(C2(C)C(=O)Nc3nc(-c4nn(CCC(F)(F)C(F)(F)F)c5cc(Cl)ccc45)nc(N)c32)cc1)C(=O)O` (single isomer, unassigned) [Example 34AA, 3-(4-{4-amino-2-[6-chloro-1-(3,3,4,4,4-pentafluorobutyl)-1H-indazol-3-yl]-5-methyl-6-oxo-6,7-dihydro-5H-pyrrolo[2,3-d]pyrimidin-5-yl}phenyl)-2-methylpropanoic acid], in assay [1], the “% Activation” value was found to be 81% and the EC50 stood at 437 nM. Further, the Ki in assay [2] turned out to be 0.138 nM. Further, the “Category: maximum peak decrease of systolic blood pressure (SBP) in SHR” value (“Category: maximum peak decrease” below) in assay [3] (Dose P.O. 3 mpk) is reported as “A (decrease in SBP in SHRs 5-25 mmHg)”.
Take `CC(Cc1ccc(C2(C)C(=O)Nc3nc(-c4nn(CCC(F)(F)C(F)(F)F)c5cc(Cl)ccc45)nc(N)c32)cc1)C(=O)O` (single isomer, unassigned) [Example 34AB, 3-(4-{4-amino-2-[6-chloro-1-(3,3,4,4,4-pentafluorobutyl)-1H-indazol-3-yl]-5-methyl-6-oxo-6,7-dihydro-5H-pyrrolo[2,3-d]pyrimidin-5-yl}phenyl)-2-methylpropanoic acid]: in assay [1], the “% Activation” value came out at 115% and the EC50 worked out at 771 nM. In addition, the Ki in assay [2] stood at 0.231 nM. Further, in assay [3] (Dose P.O. 1 mpk), the “Category: maximum peak decrease” value is reported as “A (decrease in SBP in SHRs 5-25 mmHg)”.
Turning to `C[C@@]1(c2nc(CCC(=O)O)cs2)C(=O)Nc2nc(-c3nn(CCC(F)(F)C(F)(F)F)c4ncccc34)nc(N)c21` (single isomer, unassigned) [Example 82B], in assay [1], the Emax amounted to 107% and the EC50 was 1370 nM. Further, the Ki in assay [2] was found to be 0.223 nM. Further, the “Category: maximum peak decrease” value in assay [3] (Dose P.O. 3 mpk) was “A (decrease in SBP in SHRs 5-25 mmHg)”.
On the same counts, the results for `CC(C)(Cc1ccc(C2(C)C(=O)Nc3nc(-c4nn(CCC(F)(F)C(F)(F)F)c5ncccc45)nc(N)c32)cc1)C(=O)O` (stereo not drawn) [Example 9B] are 118%, 1370 nM, 0.374 nM and “A (decrease in SBP in SHRs 5-25 mmHg)”.
On the same counts, the results for `CCCCn1nc(-c2nc(N)c3c(n2)NC(=O)[C@@]3(C)c2ccc(CCC(=O)O)cc2)c2ccc(Cl)nc21` [Example 13B, (S)-3-(4-{4-amino-2-(1-butyl-6-chloro-1H-pyrazolo[3,4-b]pyridin-3-yl)-5-methyl-6-oxo-6,7-dihydro-5H-pyrrolo[2,3-d]pyrimidin-5-yl}phenyl)propanoic acid] are 86%, 152 nM, 0.112 nM and “A (decrease in SBP in SHRs 5-25 mmHg)”.
For `CCCCn1nc(-c2nc(N)c3c(n2)NC(=O)[C@@]3(C)c2ccc(CCC(=O)O)cc2)c2cccnc21` [Example 14B, (S)-3-(4-{4-amino-2-(1-butyl-1H-pyrazolo[3,4-b]pyridin-3-yl)-5-methyl-6-oxo-6,7-dihydro-5H-pyrrolo[2,3-d]pyrimidin-5-yl}phenyl)propanoic acid], in that order: 90%, 525 nM, 0.21 nM and “A (decrease in SBP in SHRs 5-25 mmHg)”.
With `CC1(c2cccc(CCC(=O)O)c2)C(=O)Nc2nc(-c3nn(Cc4ccccc4F)c4ncccc34)nc(N)c21` (stereo not drawn) [Example 22A, 3-(3-{4-amino-2-[1-(2-fluorobenzyl)-1H-pyrazolo[3,4-b]pyridin-3-yl]-5-methyl-6-oxo-6,7-dihydro-5H-pyrrolo[2,3-d]pyrimidin-5-yl}phenyl)propanoic acid], in assay [1], the Emax amounted to 91% and the EC50 worked out at 423 nM. Besides, the Ki in assay [2] was 0.078 nM. The “Category: maximum peak decrease” value in assay [3] (Dose P.O. 3 mpk) is “A (decrease in SBP in SHRs 5-25 mmHg)”.
Regarding `CC(C)(Cc1cccc(C2(C)C(=O)Nc3nc(-c4nn(CCC(F)(F)C(F)(F)F)c5cc(Cl)ccc45)nc(N)c32)c1)C(=O)O` (stereo not drawn) [Example 27B, 3-(3-{4-amino-2-[6-chloro-1-(3,3,4,4,4-pentafluorobutyl)-1H-indazol-3-yl]-5-methyl-6-oxo-6,7-dihydro-5H-pyrrolo[2,3-d]pyrimidin-5-yl}phenyl)-2,2-dimethylpropanoic acid], in assay [1], the Emax was found to be 120% and the EC50 amounted to 331 nM. The Ki in assay [2] worked out at 0.221 nM. Also, the “Category: maximum peak decrease” value in assay [3] (Dose P.O. 1 mpk) is “A (decrease in SBP in SHRs 5-25 mmHg)”.
Take `CC(C)(Cc1ccc(C2(C)C(=O)Nc3nc(-c4nn(CCC(F)(F)C(F)(F)F)c5cc(Cl)ccc45)nc(N)c32)cc1)C(=O)O` (stereo not drawn) [Example 33B, 3-(4-{4-amino-2-[6-chloro-1-(3,3,4,4,4-pentafluorobutyl)-1H-indazol-3-yl]-5-methyl-6-oxo-6,7-dihydro-5H-pyrrolo[2,3-d]pyrimidin-5-yl}phenyl)-2,2-dimethylpropanoic acid]: in assay [1], the Emax turned out to be 100% and the EC50 was found to be 804 nM. In addition, in assay [2], the Ki amounted to 0.594 nM. Also, the “Category: maximum peak decrease” value in assay [3] (Dose P.O. 3 mpk) is reported as “B (decrease in SBP in SHRs 25-40 mmHg)”.
On to `CCCCn1nc(-c2nc(N)c3c(n2)NC(=O)[C@@]3(C)c2ccc(CCC(=O)O)cc2)c2ccc(Cl)cc21` [Example 38B, (S)-3-{4-[4-amino-2-(1-butyl-6-chloro-1H-indazol-3-yl)-5-methyl-6-oxo-6,7-dihydro-5H-pyrrolo[2,3-d]pyrimidin-5-yl]phenyl}propanoic acid], for which, in assay [1], the Emax came out at 98% and the EC50 worked out at 220 nM. The Ki in assay [2] came to 0.145 nM. Moreover, the “Category: maximum peak decrease” value in assay [3] (Dose P.O. 3 mpk) is reported as “A (decrease in SBP in SHRs 5-25 mmHg)”.
For `C[C@@]1(c2ccc(CCC(=O)O)cc2)C(=O)Nc2nc(-c3nn(CC4CCCCC4)c4cc(Cl)ccc34)nc(N)c21` [Example 44B, (S)-3-(4-{4-amino-2-[6-chloro-1-(cyclohexylmethyl)-1H-indazol-3-yl]-5-methyl-6-oxo-6,7-dihydro-5H-pyrrolo[2,3-d]pyrimidin-5-yl}phenyl)propanoic acid], in that order: 127%, 245 nM, 0.123 nM and “C (decrease in SBP in SHRs>40 mmHg)”.
For `CCCCCCn1nc(-c2nc(N)c3c(n2)NC(=O)[C@@]3(C)c2ccc(CCC(=O)O)cc2)c2ccc(Cl)cc21` [Example 45B, (S)-3-{4-[4-amino-2-(6-chloro-1-hexyl-1H-indazol-3-yl)-5-methyl-6-oxo-6,7-dihydro-5H-pyrrolo[2,3-d]pyrimidin-5-yl]phenyl}propanoic acid], in that order: 95%, 210 nM, 0.182 nM and “B (decrease in SBP in SHRs 25-40 mmHg)”.
In the case of `CC(C)(C)CCCn1nc(-c2nc(N)c3c(n2)NC(=O)[C@@]3(C)c2ccc(CCC(=O)O)cc2)c2ccc(Cl)cc21` [Example 52B, (S)-3-(4-{4-amino-2-[6-chloro-1-(4,4-dimethylpentyl)-1H-indazol-3-yl]-5-methyl-6-oxo-6,7-dihydro-5H-pyrrolo[2,3-d]pyrimidin-5-yl}phenyl)propanoic acid], in assay [1], the Emax stood at 109% and the EC50 was determined as 504 nM. Besides, the Ki in assay [2] stood at 0.413 nM. The “Category: maximum peak decrease” value in assay [3] (Dose P.O. 3 mpk) is recorded as “A (decrease in SBP in SHRs 5-25 mmHg)”.
In the case of `C[C@@]1(c2ccc(CCC(=O)O)cc2)C(=O)Nc2nc(-c3nn(CC4CCC(F)(F)CC4)c4cc(Cl)ccc34)nc(N)c21` [Example 58B, (S)-3-(4-[4-amino-2-{6-chloro-1-[(4,4-difluorocyclohexyl)methyl]-1H-indazol-3-yl}-5-methyl-6-oxo-6,7-dihydro-5H-pyrrolo[2,3-d]pyrimidin-5-yl]phenyl)propanoic acid], in assay [1], the Emax amounted to 65% and the EC50 turned out to be 1130 nM. Further, in assay [2], the Ki came out at 0.493 nM. Further, in assay [3] (Dose P.O. 3 mpk), the “Category: maximum peak decrease” value is “A (decrease in SBP in SHRs 5-25 mmHg)”.
For `Cc1ccc2c(-c3nc(N)c4c(n3)NC(=O)[C@@]4(C)c3ccc(CCC(=O)O)cc3)nn(Cc3ccccc3F)c2c1` [Example 59B, (S)-3-(4-{4-amino-2-[1-(2-fluorobenzyl)-6-methyl-1H-indazol-3-yl]-5-methyl-6-oxo-6,7-dihydro-5H-pyrrolo[2,3-d]pyrimidin-5-yl}phenyl)propanoic acid], in that order: 116%, 858 nM, 0.293 nM and “A (decrease in SBP in SHRs 5-25 mmHg)”.

Source of the values: US10030027B2, “Soluble guanylate cyclase stimulators” (MERCK SHARP & DOHME CORP., priority 2015, dated 2018).
